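Here, GI50 denotes the concentration required for 50% inhibition of growth. TGI: concentration producing complete growth inhibition.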
Legend:
Assay in all cases: NCI anticancer screen, dose series, 384-well format
HT29 colon = tested on: HT29 colon
RXF 393 renal = tested on: RXF 393 renal
SNB-75 CNS = tested on: SNB-75 CNS
HOP-62 NSCLC = tested on: HOP-62 NSCLC
MCF7 breast = tested on: MCF7 breast
A549 NSCLC = tested on: A549 NSCLC
PC-3 prostate = tested on: PC-3 prostate
UACC-62 melanoma = tested on: UACC-62 melanoma
SK-MEL-28 melanoma = tested on: SK-MEL-28 melanoma
OVCAR-4 ovarian = tested on: OVCAR-4 ovarian
SK-MEL-2 melanoma = tested on: SK-MEL-2 melanoma
UO-31 renal = tested on: UO-31 renal
MOLT-4 leukemia = tested on: MOLT-4 leukemia
NCI-H322M lung = tested on: NCI-H322M lung
NCI-H23 lung = tested on: NCI-H23 lung
DU-145 prostate = tested on: DU-145 prostate
SF-268 CNS = tested on: SF-268 CNS
NCI/ADR-RES ovarian = tested on: NCI/ADR-RES ovarian
OVCAR-5 ovarian = tested on: OVCAR-5 ovarian
MALME-3M melanoma = tested on: MALME-3M melanoma
BT-549 breast = tested on: BT-549 breast
HOP-92 NSCLC = tested on: HOP-92 NSCLC
EKVX NSCLC = tested on: EKVX NSCLC
SW-620 colon = tested on: SW-620 colon
MDA-MB-231 breast = tested on: MDA-MB-231 breast
SK-OV-3 ovarian = tested on: SK-OV-3 ovarian
MDA-MB-435 melanoma = tested on: MDA-MB-435 melanoma
M14 melanoma = tested on: M14 melanoma
HS 578T breast = tested on: HS 578T breast
CCRF-CEM leukemia = tested on: CCRF-CEM leukemia
A498 renal = tested on: A498 renal
CAKI-1 renal = tested on: CAKI-1 renal
OVCAR-3 ovarian = tested on: OVCAR-3 ovarian
HL-60(TB) leukemia = tested on: HL-60(TB) leukemia
KM12 colon = tested on: KM12 colon
SN12C renal = tested on: SN12C renal
SF-539 CNS = tested on: SF-539 CNS
T-47D breast = tested on: T-47D breast
SF-295 CNS = tested on: SF-295 CNS
MDA-MB-468 breast = tested on: MDA-MB-468 breast
HCT-116 colon = tested on: HCT-116 colon
OVCAR-8 ovarian = tested on: OVCAR-8 ovarian
U251 glioblastoma = tested on: U251 glioblastoma
NCI-H522 lung = tested on: NCI-H522 lung
786-0 renal = tested on: 786-0 renal
UACC-257 melanoma = tested on: UACC-257 melanoma
TK-10 renal = tested on: TK-10 renal
K-562 leukemia = tested on: K-562 leukemia
HCT-15 colon = tested on: HCT-15 colon
SNB-19 CNS = tested on: SNB-19 CNS
RPMI-8226 leukemia = tested on: RPMI-8226 leukemia
ACHN renal = tested on: ACHN renal
NCI-H226 lung = tested on: NCI-H226 lung
IGROV1 ovarian = tested on: IGROV1 ovarian
LOX IMVI melanoma = tested on: LOX IMVI melanoma

Compound `O=c1[nH]c(=O)n(C2CC(O)C(CO)O2)cc1C(F)(F)F` (stereo not given) has a GI50 (HT29 colon) of 13.4 µM, a TGI (HT29 colon) of over 100 µM and a GI50 (RXF 393 renal) of 2480 nM. For the same compound, the TGI (RXF 393 renal) was 87.2 µM, the GI50 (SNB-75 CNS) was 15.9 µM and the TGI (SNB-75 CNS) was over 100 µM. For the same compound, the GI50 (HOP-62 NSCLC) was 2270 nM, the TGI (HOP-62 NSCLC) was 11 µM and the GI50 (MCF7 breast) was 212 nM. It also gave a TGI (MCF7 breast) of over 100 µM, a GI50 (A549 NSCLC) of 2430 nM and a TGI (A549 NSCLC) of over 100 µM. For the same compound, the GI50 (PC-3 prostate) was 80.1 µM, the TGI (PC-3 prostate) was over 100 µM and the GI50 (UACC-62 melanoma) was 3.25 µM. For the same compound, the TGI (UACC-62 melanoma) was 23 µM, the GI50 (SK-MEL-28 melanoma) was 6.78 µM and the TGI (SK-MEL-28 melanoma) was over 100 µM. The GI50 (OVCAR-4 ovarian) was 88.5 µM, the TGI (OVCAR-4 ovarian) was over 100 µM and the GI50 (SK-MEL-2 melanoma) was over 100 µM. It also gave a TGI (SK-MEL-2 melanoma) of over 100 µM, a GI50 (UO-31 renal) of 2550 nM and a TGI (UO-31 renal) of 14.2 µM. It also gave a GI50 (MOLT-4 leukemia) of 197 nM, a TGI (MOLT-4 leukemia) of 459 nM and a GI50 (NCI-H322M lung) of 66 µM. The TGI (NCI-H322M lung) was over 100 µM, the GI50 (NCI-H23 lung) was 2060 nM and the TGI (NCI-H23 lung) was 11.3 µM. It also gave a GI50 (DU-145 prostate) of 530 nM, a TGI (DU-145 prostate) of 8.6 µM and a GI50 (SF-268 CNS) of 2210 nM. It also gave a TGI (SF-268 CNS) of 14.3 µM, a GI50 (NCI/ADR-RES ovarian) of 3.88 µM and a TGI (NCI/ADR-RES ovarian) of 36.5 µM. It also gave a GI50 (OVCAR-5 ovarian) of 12 µM, a TGI (OVCAR-5 ovarian) of over 100 µM and a GI50 (MALME-3M melanoma) of 1380 nM. For the same compound, the TGI (MALME-3M melanoma) was over 100 µM, the GI50 (BT-549 breast) was 763 nM and the TGI (BT-549 breast) was 9.01 µM. For the same compound, the GI50 (HOP-92 NSCLC) was 50.8 µM, the TGI (HOP-92 NSCLC) was over 100 µM and the GI50 (EKVX NSCLC) was over 100 µM. For the same compound, the TGI (EKVX NSCLC) was over 100 µM, the GI50 (SW-620 colon) was 1240 nM and the TGI (SW-620 colon) was over 100 µM. For the same compound, the GI50 (MDA-MB-231 breast) was 23.6 µM, the TGI (MDA-MB-231 breast) was over 100 µM and the GI50 (SK-OV-3 ovarian) was 7.07 µM. The TGI (SK-OV-3 ovarian) was over 100 µM, the GI50 (MDA-MB-435 melanoma) was 8.93 µM and the TGI (MDA-MB-435 melanoma) was over 100 µM. For the same compound, the GI50 (M14 melanoma) was 2420 nM, the TGI (M14 melanoma) was 16.1 µM and the GI50 (HS 578T breast) was 25.4 µM. The TGI (HS 578T breast) was over 100 µM, the GI50 (CCRF-CEM leukemia) was 234 nM and the TGI (CCRF-CEM leukemia) was 469 nM. It also gave a GI50 (A498 renal) of 7.94 µM, a TGI (A498 renal) of over 100 µM and a GI50 (CAKI-1 renal) of 4.13 µM. The TGI (CAKI-1 renal) was over 100 µM, the GI50 (OVCAR-3 ovarian) was 5.96 µM and the TGI (OVCAR-3 ovarian) was over 100 µM. For the same compound, the GI50 (HL-60(TB) leukemia) was 171 nM, the TGI (HL-60(TB) leukemia) was 394 nM and the GI50 (KM12 colon) was 7.51 µM. The TGI (KM12 colon) was over 100 µM, the GI50 (SN12C renal) was 1900 nM and the TGI (SN12C renal) was 9 µM. The GI50 (SF-539 CNS) was 4.81 µM, the TGI (SF-539 CNS) was 20.4 µM and the GI50 (T-47D breast) was 7.65 µM. For the same compound, the TGI (T-47D breast) was over 100 µM, the GI50 (SF-295 CNS) was 3.21 µM and the TGI (SF-295 CNS) was 12.3 µM. The GI50 (MDA-MB-468 breast) was 2610 nM, the TGI (MDA-MB-468 breast) was 19.5 µM and the GI50 (HCT-116 colon) was 698 nM. For the same compound, the TGI (HCT-116 colon) was over 100 µM, the GI50 (OVCAR-8 ovarian) was 4.72 µM and the TGI (OVCAR-8 ovarian) was 30.2 µM. For the same compound, the GI50 (U251 glioblastoma) was 4.87 µM, the TGI (U251 glioblastoma) was 79.7 µM and the GI50 (NCI-H522 lung) was 21.8 µM. The TGI (NCI-H522 lung) was over 100 µM, the GI50 ([…]-0 renal) was 2940 nM and the TGI (786-0 renal) was 77.6 µM. It also gave a GI50 (UACC-257 melanoma) of 12.8 µM, a TGI (UACC-257 melanoma) of over 100 µM and a GI50 (TK-10 renal) of 14.6 µM. For the same compound, the TGI (TK-10 renal) was over 100 µM, the GI50 (K-562 leukemia) was 705 nM and the TGI (K-562 leukemia) was over 100 µM. It also gave a GI50 (HCT-15 colon) of 4.18 µM, a TGI (HCT-15 colon) of over 100 µM and a GI50 (SNB-19 CNS) of 3.45 µM. It also gave a TGI (SNB-19 CNS) of over 100 µM, a GI50 (RPMI-8226 leukemia) of 199 nM and a TGI (RPMI-8226 leukemia) of 11.5 µM. For the same compound, the GI50 (ACHN renal) was 519 nM, the TGI (ACHN renal) was 2950 nM and the GI50 (NCI-H226 lung) was 15.3 µM. It also gave a TGI (NCI-H226 lung) of 61.2 µM, a GI50 (IGROV1 ovarian) of 13 µM and a TGI (IGROV1 ovarian) of over 100 µM. For the same compound, the GI50 (LOX IMVI melanoma) was 813 nM and the TGI (LOX IMVI melanoma) was 9.83 µM.
